3 compounds from patent publication US7514432B2, “Compounds and methods of treating cell proliferative diseases, retinopathies and arthritis” (Exonhit Therapeutics SA, priority 2003, dated 2009) can be followed below.

In data set [1] the test system is MCF7. As to the kind of experiment: Cell viability assay (MTT), MCF7. It is filed as cell-based. Particulars: Homo sapiens, 10% FBS, 1% DMSO. As to the method: Table 12: 6-day cell viability assay (MTT) in the presence of 10% Fetal Bovine Serum and 1% DMSO, in HMEC1, HCT116, MDA-MB-231, MCF7 and NIH3T3 cell lines. 3 10^3 to 15 10^3 cells were seeded in 48-well plates in growth medium containing 10% FBS, with or without various concentrations of test compounds. Cell cultures were fed every 3 days with the appropriate media. Cell viability was determined on day 6. Data were analyzed and IC50s were calculated from dose-response curves using GraphPad Prism. Results summarized in the tables are mean±SEM of 1 to 8 independent experiments.
(§1) Table 14: 3-day cell viability assay (MTT) in the presence of 10% Fetal Bovine Serum and 1% DMSO, in DLD1, HCT116, MDA-MB-231, MCF7 and HeLa cells. 7.5 10^3 to 1.5 10^4 cells were seeded in 48-well plates in growth medium containing 10% FBS, with or without various concentrations of test compounds. Data were analyzed and IC50s were calculated from dose-response curves using GraphPad Prism. Results summarized in the tables are mean±SEM of 1 to 7 independent experiments.
(§2) In order to determine a compound's effect on cell viability, microculture tetrazolium assays (MTT) were performed as described by Carmichael et al. (1996) with modifications. Four human tumoral cell lines, namely HCT116 colon adenocarcinoma, H460 lung carcinoma, MCF-7 and MDA-MB-231 breast carcinoma cell lines, DLD1 colorectal adenocarcinoma, HeLa adenocarcinoma, HepG2 hepatocellular carcinoma. 3 immortalized but non tumorigenic cell lines, namely NIH3T3 mouse fibroblasts (American Type Culture Collection) and primary hepatocytes (Biopredic international), cultured according to their recommendations together with Human Microvasculature Endothelial Cell line HMEC1 (National Center for Infectious Diseases). Briefly, cells were seeded in 48-well plates 24 hours before drug addition. Cells were treated with 0 to 200 μM (11 concentrations) of compound solubilized in DMSO, adjusting the final concentration of DMSO to 1% in the well. 16 hours, and three or six days after treatment, 0.5 mg/ml MTT (Sigma) was added to the medium and cells were incubated for 1-5 hours at 37° C. before solubilization of formazan crystals in 100% DMSO. Absorbance was measured using a spectrophotometer at a wavelength of 550 nm. Data was analyzed using the GraphPad Prism software (GraphPad Software, Inc.), and IC50 (dose leading to 50% cell death) was calculated from the dose-response curves.

For data set [2], the system named is NIH 3T3. Nature of the data set: Cell viability assay (MTT), NIH 3T3. It is filed as cell-based, mouse. Particulars: 10% FBS, 1% DMSO. An outline of the steps:
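MTT viability in medium with 10% FBS and 1% DMSO, with cells seeded 24 h before treatment at 0–200 μM (11 concentrations). There were two formats: 6-day (3–15 10^3 cells, re-fed every 3 days) or 16-hour (5–10 10^4 cells). Absorbance was read at 550 nm, giving IC50 (50% cell death) as mean±SEM.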

A short description of data set [3]: Screening in vivo rising and repeated-dose toxicity study in rats. Particulars: for body weight: at 300 mg/kg/day p.o.; for biological changes (hematology and blood biochemistry) / clinical signs / death during the study / tolerability: p.o. 10, 50, 300 mg/kg per day, 3 days each. As to the method:
Screening in vivo rising and repeated-dose toxicity study in rats was performed on 3 rats per compound with the following schedule: • a. day 1 to day 3: 10 mg/kg p.o. per day, • b. day 4 to day 6: 50 mg/kg p.o. per day, • c. day 7 to day 9: 300 mg/kg p.o. per day.
Clinical signs, bodyweight, food consumption, and blood parameters were followed.

For data set [4], the system named is DLD1. Nature of the data set: Cell viability assay (MTT), DLD1. Type of data set: cell-based. Particulars: Homo sapiens, DLD-1, 72 h, 10% FBS, 3-day treatment, 1% DMSO. The procedure: as §1, §2
For data set [5], the system named is HeLa. Nature of the data set: Cell viability assay (MTT), HeLa. It is filed as cell-based. Particulars: Homo sapiens, 72 h, 10% FBS, 3-day treatment, 1% DMSO. The procedure: as §1, §2
Data set [6] deals with MDA-MB-231. As to the kind of experiment: Boyden chamber migration assay, MDA-MB-231. Type of data set: cell-based, human. Particulars: Homo sapiens, FBS as chemoattractant. The procedure: FIG. 4: Migration assays. (A) Wound healing assay in REF cells. 7.6 10^4 cells were plated on coverslips 48 hours before the experiment. The cells were pre-treated for 30 min. with the compounds, and then a scrape was done using a pipette tip. The scraped coverslips in treatment medium were put under a thermostated microscope coupled to a video camera. Movies were analyzed as described in material and methods, and velocity and total distance covered by the cells were evaluated. Bar graphs represent the mean±SEM of 2 to 4 experiments. (B) Boyden chamber migration assay in HMEC1, NIH3T3 and MDA-MB-231 cells. 5 10^4 to 7.5 10^4 Cells, resuspended in culture medium with or without FBS and with different compound concentrations, were seeded in the upper Boyden blind well on top of 8 μm pore-sized filters. The ability of the cells to migrate through the filter was assayed in the absence or presence of FBS in the lower Boyden chamber. After 16 hours incubation, the medium was removed and replaced with calcein-AM containing medium. After labeling, cells were washed with HBSS and fluorescence was read in a fluorescence plate reader. Fluorescence values were normalized against the fluorescence obtained for the 1% DMSO control. The data plotted are the means±SEM of 2 to 4 independent experiments.
An essential characteristic of malignant cells is their ability to migrate, invade host tissues and to produce metastases. In order to evaluate the capacity of one compound to affect the ability of tumoral cells to migrate, migration assays were performed using highly invasive tumoral cells MDA-MB-231, endothelial cells HMEC1 or fibroblastic cells NIH3T3. This assay was performed using Falcon HTS Fluoroblock inserts. Culture medium containing Fetal Bovine Serum (FBS; which is used as a chemoattractant) was added to the plate wells and 2 10^4 to 7.5 10^4 cells resuspended in medium without FBS and with 0.1% BSA were added to each insert well. The compound of interest was added to the medium in both the upper and the lower chambers. Plates were incubated for 16 hours at 37° C. Following incubation, the medium was removed from the upper chamber and the entire insert plate was transferred to a second 24-well plate containing 4 μg/ml Calcein-AM™ in medium containing 0.1% BSA. The plates were incubated for one hour at 37° C., rinsed with Hanks Buffered Saline (HBSS). Fluorescence data were collected using Fluoroskan Ascent FL fluorescence plate reader at an excitation wavelength (Ex) of 485 nm and emission wavelength (Em) of 517 nm. Only those labelled cells that passed through the Matrigel layer and the membrane were detected. Data were analyzed using the GraphPad Prism software and IM50s (dose at which 50% inhibition of cell migration is observed) were calculated.

Data set [7] deals with HMEC1. As to the kind of experiment: Cell viability assay (MTT), HMEC1. Particulars: MTT, 10% FBS, 6-day treatment, 1% DMSO. Type of data set: cell-based, Human. The essentials:
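HMEC1 cells seeded 24 h before dosing, then exposed to 0–200 μM compound (11 concentrations) in medium with 10% FBS and 1% DMSO final, refed every 3 days. Viability read on day 6 by MTT (0.5 mg/ml, 1–5 h at 37 °C), absorbance 550 nm; IC50 from dose-response curves, mean±SEM of 1–8 experiments.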

Setting [8] is: Mus musculus, NIH3T3, 16 h, 16-hours treatment.
Where [9] appears, read: Mus musculus, NIH3T3, 144 h, 6-day treatment.

As for `Cl.Cl.O=c1cc(CN2CCOCC2)occ1OCCCCCSc1ccnc2cc(C(F)(F)F)ccc12` [EHT 1864, 5-(5-(7-(Trifluoromethyl)quinolin-4-ylthio)pentyloxy)-2-(morpholinomethyl)-4H-pyran-4-one dihydrochloride], the 50% inhibitory concentration (IC50) (in general, the concentration needed to halve the response being measured) worked out at 15.2 µM in data set [1] (MCF7, 72 h, 3-day treatment); 5.6 µM in data set [1] (MCF7, 144 h, 6-day treatment); 69.3 µM in data set [2] (setting [8]); 19.8 µM in data set [2] (setting [9]); 21.9 µM in data set [4]; 23.3 µM in data set [5]. In addition, the IC50 in data set [6] (MDA-MB-231, 16 hours) amounted to 5.1 ± 1.9 µM; in data set [7] (Homo sapiens, HMEC-1, 144 h) it was 27.4 µM. Besides, the body weight entry in data set [3] was “mean body weight loss”. In addition, in data set [3], the “biological changes (hematology and blood biochemistry)” value (shortened to “biological changes”) is recorded as “Some limited biological changes”. In addition, the clinical signs entry in data set [3] is “Minimal clinical signs”. The “death during the study” value in data set [3] is “No death occurred”. In data set [3], the tolerability entry is on record as “quite well tolerated up to 300 mg/kg/day”.
With `CN1CCN(Cc2cc(=O)c(OCCCCCSc3ccnc4cc(C(F)(F)F)ccc34)co2)CC1.Cl.Cl.Cl` [EHT 9241, 5-(5-(7-(Trifluoromethyl)quinolin-4-ylthio)pentyloxy)-2-((4-methylpiperazin-1-yl)methyl)-4H-pyran-4-one trihydrochloride], the IC50 was 7.5 µM in data set [1] (MCF7, 72 h, 3-day treatment); 1.2 µM in data set [1] (MCF7, 144 h, 6-day treatment); 8.7 µM in data set [2] (6-day treatment, trihydrochloride); 25.6 µM in data set [2] (setting [8]); 8.1 µM in data set [4]; 5.7 µM in data set [5]. Further, the concentration for half-maximal inhibition (IC50) in data set [6] (MDA-MB-231, 16 h) was 2.7 ± 1 µM; in data set [7] (Homo sapiens, HMEC-1, 144 h) it was under 10 µM; in data set [7] (trihydrochloride), 8.2 µM. Also, the body weight result in data set [3] is “mean body weight loss”. In addition, in data set [3], the “biological changes” value was “Some limited biological changes”. For the same compound, the clinical signs entry in data set [3] is “Minimal clinical signs”. Further, the “death during the study” value in data set [3] is on record as “No death occurred”. Moreover, the tolerability result in data set [3] was “quite well tolerated up to 300 mg/kg/day”.
For `Cl.Cl.Cl.O=c1cc(CN2CCNCC2)occ1OCCCCCSc1ccnc2cc(C(F)(F)F)ccc12` [EHT 8560, 5-(5-(7-(Trifluoromethyl)quinolin-4-ylthio)pentyloxy)-2-((piperazin-1-yl)methyl)-4H-pyran-4-one trihydrochloride], the 50% inhibitory concentration (IC50) in data set [1] (MCF7, 72 h, 3-day treatment) is 9.2 µM; in data set [2] (setting [9]) it was 5.1 µM; in data set [4], 5.6 µM; in data set [5], 4.4 µM; in data set [6] (MDA-MB-231, 16 h), 4.5 ± 2.4 µM; in data set [7] (Homo sapiens, HMEC-1, 144 h) it was under 10 µM. The same compound returned a concentration for half-maximal inhibition (IC50) in data set [7] (trihydrochloride) of 6.1 µM. Further, the body weight result in data set [3] is on record as “mean body weight loss”. The “biological changes” value in data set [3] is listed as “Some limited biological changes”. In data set [3], the clinical signs entry is listed as “Minimal clinical signs”. In addition, in data set [3], the “death during the study” value is “No death occurred”. Further, the tolerability entry in data set [3] was “quite well tolerated up to 300 mg/kg/day”.
